Assay results from patent publication US10058550B2, “Methods of treating heart failure” (priority 2015, dated 2018).

Target: human APJ receptor (Homo sapiens (Human), UniProt P35414)
Assay: biochemical
Type: biochemical
Details: read-out: Activity hAPJ SPA EC50 IP
Method in brief: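 Membranes from CHO cells stably expressing cloned human APJ were incubated with WGA SPA beads in 20 mM HEPES pH 7.5, 5 mM MgCl2, 0.1% BSA, 200 mM NaCl and 3 μM GDP. Reaction started with 0.2 nM [35S]GTPγS ± ligands, 90 min at RT. EC50 obtained by non-linear regression as mean of independent experiments.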

Sequence of human APJ receptor (P35414 whole entry): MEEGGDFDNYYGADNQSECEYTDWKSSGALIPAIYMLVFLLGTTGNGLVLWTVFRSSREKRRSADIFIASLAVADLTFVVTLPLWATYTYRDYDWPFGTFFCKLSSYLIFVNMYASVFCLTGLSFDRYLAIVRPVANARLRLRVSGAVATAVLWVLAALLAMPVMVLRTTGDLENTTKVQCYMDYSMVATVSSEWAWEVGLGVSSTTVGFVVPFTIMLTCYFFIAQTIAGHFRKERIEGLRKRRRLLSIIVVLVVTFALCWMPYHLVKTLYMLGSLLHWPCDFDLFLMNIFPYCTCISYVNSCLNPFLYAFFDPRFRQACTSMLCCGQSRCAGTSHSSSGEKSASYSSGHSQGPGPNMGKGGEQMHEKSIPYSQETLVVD

## CCOc1cccc(OC)c1-n1c(NS(=O)(=O)[C@@H](C)[C@H](OC)c2ncc(C)cn2)nnc1-c1cccc(OC)n1 (single isomer, unassigned) [Example 664.0, (1R,2S,P)—N-(4-(2-ethoxy-6-methoxyphenyl)-5-(6-methoxy-2-pyridinyl)-4H-1,2,4-triazol-3-yl)-1-methoxy-1-(5-methyl-2-pyrimidinyl)-2-propanesulfonamide or (1R,2S,M)-N-(4-(2-ethoxy-6-methoxyphenyl)-5-(6-methoxy-2-pyridinyl)-4H-1,2,4-triazol-3-yl)-1-methoxy-1-(5-methyl-2-pyrimidinyl)-2-propanesulfonamide]
  EC50: 0.31 nM

## COc1cnc([C@H](O)[C@@H](C)S(=O)(=O)Nc2nnc(-c3cccnc3)n2-c2c(OC)cccc2OC)cn1 (single isomer, unassigned) [Example 706.0, (1S,2R)-N-(4-(2,6-dimethoxyphenyl)-5-(3-pyridinyl)-4H-1,2,4-triazol-3-yl)-1-hydroxy-1-(5-methoxy-2-pyrazinyl)-2-propanesulfonamide or (1R,2S)-N-(4-(2,6-dimethoxyphenyl)-5-(3-pyridinyl)-4H-1,2,4-triazol-3-yl)-1-hydroxy-1-(5-methoxy-2-pyrazinyl)-2-propanesulfonamide]
  EC50: 0.34 nM

## COc1ccnc(OC)c1-n1c(NS(=O)(=O)[C@@H](C)[C@H](OC)c2ccc(Cl)cn2)nnc1-c1cccnc1 (single isomer, unassigned) [Example 712.0]
  EC50: 0.9 nM

## COc1cccc(OC)c1-n1c(NS(=O)(=O)[C@@H](C)[C@H](OC)C2CCC2)nnc1-c1cncc(C)c1 (single isomer, unassigned) [Example 719.0]
  EC50: 44 nM

## COc1cccc(-c2nnc(NS(=O)(=O)[C@@H](C)[C@@H](O)C3CC(F)(F)C3)n2-c2c(OC)cccc2OC)n1 (single isomer, unassigned) [Example 720.0]
  EC50: 35 nM

## COc1cccc(-c2nnc(NS(=O)(=O)[C@@H](C)[C@@H](O)C3CC(F)(F)C3)n2-c2c(OC)cccc2OC)n1 (single isomer, unassigned) [Example 722.0]
  EC50: 1.7 nM

## COc1cccc(-c2nnc(NS(=O)(=O)[C@@H](C)[C@@H](O)C3CC(F)(F)C3)n2-c2c(OC)cccc2OC)n1 (single isomer, unassigned) [Example 723.0]
  EC50: 2.5 nM

## COc1cccc(OC)c1-n1c(NS(=O)(=O)[C@@H](C)[C@H](OC)C2CC(C)(C)C2)nnc1-c1cncc(C)c1 (single isomer, unassigned) [Example 724.0]
  EC50: 220 nM

## COc1cccc(OC)c1-n1c(NS(=O)(=O)[C@@H](C)[C@H](OC)C2CC(C)(C)C2)nnc1-c1cncc(C)c1 (single isomer, unassigned) [Example 725.0]
  EC50: 36 nM

## COc1cccc(OC)c1-n1c(NS(=O)(=O)[C@@H](C)[C@H](OC)C2CC(C)(C)C2)nnc1-c1cncc(C)c1 (single isomer, unassigned) [Example 726.0]
  EC50: 7.5 nM

## COc1cccc(OC)c1-n1c(NS(=O)(=O)[C@@H](C)[C@H](OC)C2CC(C)(C)C2)nnc1-c1cncc(C)c1 (single isomer, unassigned) [Example 727.0]
  EC50: 200 nM

## COc1cccc(OC)c1-n1c(NS(=O)(=O)C[C@H](O)c2ncc(C)cn2)nnc1-c1cncc(C)c1 (single isomer, unassigned) [Example 729.0, (R)—N-(4-(2,6-dimethoxyphenyl)-5-(5-methylpyridin-3-yl)-4H-1,2,4-triazol-3-yl)-2-hydroxy-2-(5-methylpyrimidin-2-yl)ethanesulfonamide or (S)—N-(4-(2,6-dimethoxyphenyl)-5-(5-methylpyridin-3-yl)-4H-1,2,4-triazol-3-yl)-2-hydroxy-2-(5-methylpyrimidin-2-yl)ethanesulfonamide]
  EC50: 1.5 nM

## COc1cccc(OC)c1-n1c(NS(=O)(=O)[C@H](C)[C@@H](O)c2cn3ccccc3n2)nnc1-c1cccnc1 (single isomer, unassigned) [Example 735.0, (1S,2R)—N-(4-(2,6-dimethoxyphenyl)-5-(pyridin-3-yl)-4H-1,2,4-triazol-3-yl)-1-hydroxy-1-(imidazo[1,2-a]pyridin-2-yl)propane-2-sulfonamide or (1R,2S)—N-(4-(2,6-dimethoxyphenyl)-5-(pyridin-3-yl)-4H-1,2,4-triazol-3-yl)-1-hydroxy-1-(imidazo[1,2-a]pyridin-2-yl)propane-2-sulfonamide]
  EC50: 0.48 nM

## COc1cccc(OC)c1-n1c(NS(=O)(=O)[C@H](C)[C@@H](O)c2cn3ccccc3n2)nnc1-c1cccnc1 (single isomer, unassigned) [Example 736.0, (1S,2R)—N-(4-(2,6-dimethoxyphenyl)-5-(pyridin-3-yl)-4H-1,2,4-triazol-3-yl)-1-hydroxy-1-(imidazo[1,2-a]pyridin-2-yl)propane-2-sulfonamide or (1R,2S)—N-(4-(2,6-dimethoxyphenyl)-5-(pyridin-3-yl)-4H-1,2,4-triazol-3-yl)-1-hydroxy-1-(imidazo[1,2-a]pyridin-2-yl)propane-2-sulfonamide]
  EC50: 19 nM

## COc1cccc(-c2nnc(NS(=O)(=O)[C@@H](C)[C@H](OC)c3ncc(C)cn3)n2-c2c(O)ncnc2OC)n1 (single isomer, unassigned) [Example 739.0, (1R,2S,M)-N-(4-(4-hydroxy-6-methoxypyrimidin-5-yl)-5-(6-methoxypyridin-2-yl)-4H-1,2,4-triazol-3-yl)-1-methoxy-1-(5-methylpyrimidin-2-yl)propane-2-sulfonamide or (1R,2S,P)-N-(4-(4-hydroxy-6-methoxypyrimidin-5-yl)-5-(6-methoxypyridin-2-yl)-4H-1,2,4-triazol-3-yl)-1-methoxy-1-(5-methylpyrimidin-2-yl)propane-2-sulfonamide]
  EC50: 1.5 nM

## COc1cccc(-c2nnc(NS(=O)(=O)[C@@H](C)[C@H](OC)c3ncc(C)cn3)n2-c2c(O)ncnc2OC)n1 (single isomer, unassigned) [Example 740.0, (1R,2S,M)-N-(4-(4-hydroxy-6-methoxypyrimidin-5-yl)-5-(6-methoxypyridin-2-yl)-4H-1,2,4-triazol-3-yl)-1-methoxy-1-(5-methylpyrimidin-2-yl)propane-2-sulfonamide or (1R,2S,P)-N-(4-(4-hydroxy-6-methoxypyrimidin-5-yl)-5-(6-methoxypyridin-2-yl)-4H-1,2,4-triazol-3-yl)-1-methoxy-1-(5-methylpyrimidin-2-yl)propane-2-sulfonamide]
  EC50: 56 nM

## COc1cnc([C@@H](OC(C)C)[C@@H](C)S(=O)(=O)Nc2nnc(-c3cncc(C)c3)n2-c2c(OC)cccc2OC)cn1 (single isomer, unassigned) [Example 742.0, (1R,2R)-N-(4-(2,6-dimethoxyphenyl)-5-(5-methylpyridin-3-yl)-4H-1,2,4-triazol-3-yl)-1-isopropoxy-1-(5-methoxypyrazin-2-yl)propane-2-sulfonamide or (1S,2S)-N-(4-(2,6-dimethoxyphenyl)-5-(5-methylpyridin-3-yl)-4H-1,2,4-triazol-3-yl)-1-isopropoxy-1-(5-methoxypyrazin-2-yl)propane-2-sulfonamide]
  EC50: 35 nM

## COc1cccc(OC)c1-n1c(NS(=O)(=O)[C@H](C)[C@H](OC(C)C)c2ccc(Cl)cn2)nnc1-c1cncc(C)c1 (single isomer, unassigned) [Example 744.0, (1R,2R)-1-(5-chloropyridin-2-yl)-N-(4-(2,6-dimethoxyphenyl)-5-(5-methylpyridin-3-yl)-4H-1,2,4-triazol-3-yl)-1-isopropoxypropane-2-sulfonamide or (1S,2S)-1-(5-chloropyridin-2-yl)-N-(4-(2,6-dimethoxyphenyl)-5-(5-methylpyridin-3-yl)-4H-1,2,4-triazol-3-yl)-1-isopropoxypropane-2-sulfonamide]
  EC50: 26 nM

## COc1cccc(OC)c1-n1c(NS(=O)(=O)[C@H](C)[C@H](OC(C)C)c2ccc(Cl)cn2)nnc1-c1cncc(C)c1 (single isomer, unassigned) [Example 745.0, (1R,2R)-1-(5-chloropyridin-2-yl)-N-(4-(2,6-dimethoxyphenyl)-5-(5-methylpyridin-3-yl)-4H-1,2,4-triazol-3-yl)-1-isopropoxypropane-2-sulfonamide or (1S,2S)-1-(5-chloropyridin-2-yl)-N-(4-(2,6-dimethoxyphenyl)-5-(5-methylpyridin-3-yl)-4H-1,2,4-triazol-3-yl)-1-isopropoxypropane-2-sulfonamide]
  EC50: 0.4 nM

## COc1cccc(OC)c1-n1c(NS(=O)(=O)[C@H](C)[C@H](OC(C)C)c2cnc(C)cn2)nnc1-c1cncc(C)c1 (single isomer, unassigned) [Example 746.0, (1R,2R)-N-(4-(2,6-dimethoxyphenyl)-5-(5-methylpyridin-3-yl)-4H-1,2,4-triazol-3-yl)-1-isopropoxy-1-(5-methylpyrazin-2-yl)propane-2-sulfonamide or (1S,2S)-N-(4-(2,6-dimethoxyphenyl)-5-(5-methylpyridin-3-yl)-4H-1,2,4-triazol-3-yl)-1-isopropoxy-1-(5-methylpyrazin-2-yl)propane-2-sulfonamide]
  EC50: 80 nM

## COc1cccc(OC)c1-n1c(NS(=O)(=O)[C@H](C)[C@H](OC(C)C)c2cnc(C)cn2)nnc1-c1cncc(C)c1 (single isomer, unassigned) [Example 747.0, (1R,2R)-N-(4-(2,6-dimethoxyphenyl)-5-(5-methylpyridin-3-yl)-4H-1,2,4-triazol-3-yl)-1-isopropoxy-1-(5-methylpyrazin-2-yl)propane-2-sulfonamide or (1S,2S)-N-(4-(2,6-dimethoxyphenyl)-5-(5-methylpyridin-3-yl)-4H-1,2,4-triazol-3-yl)-1-isopropoxy-1-(5-methylpyrazin-2-yl)propane-2-sulfonamide]
  EC50: 7.6 nM
